The target of data set [1] is T1, Toll-like receptor 8 (Homo sapiens) (UniProt Q9NR97).
T1 sequence (whole entry): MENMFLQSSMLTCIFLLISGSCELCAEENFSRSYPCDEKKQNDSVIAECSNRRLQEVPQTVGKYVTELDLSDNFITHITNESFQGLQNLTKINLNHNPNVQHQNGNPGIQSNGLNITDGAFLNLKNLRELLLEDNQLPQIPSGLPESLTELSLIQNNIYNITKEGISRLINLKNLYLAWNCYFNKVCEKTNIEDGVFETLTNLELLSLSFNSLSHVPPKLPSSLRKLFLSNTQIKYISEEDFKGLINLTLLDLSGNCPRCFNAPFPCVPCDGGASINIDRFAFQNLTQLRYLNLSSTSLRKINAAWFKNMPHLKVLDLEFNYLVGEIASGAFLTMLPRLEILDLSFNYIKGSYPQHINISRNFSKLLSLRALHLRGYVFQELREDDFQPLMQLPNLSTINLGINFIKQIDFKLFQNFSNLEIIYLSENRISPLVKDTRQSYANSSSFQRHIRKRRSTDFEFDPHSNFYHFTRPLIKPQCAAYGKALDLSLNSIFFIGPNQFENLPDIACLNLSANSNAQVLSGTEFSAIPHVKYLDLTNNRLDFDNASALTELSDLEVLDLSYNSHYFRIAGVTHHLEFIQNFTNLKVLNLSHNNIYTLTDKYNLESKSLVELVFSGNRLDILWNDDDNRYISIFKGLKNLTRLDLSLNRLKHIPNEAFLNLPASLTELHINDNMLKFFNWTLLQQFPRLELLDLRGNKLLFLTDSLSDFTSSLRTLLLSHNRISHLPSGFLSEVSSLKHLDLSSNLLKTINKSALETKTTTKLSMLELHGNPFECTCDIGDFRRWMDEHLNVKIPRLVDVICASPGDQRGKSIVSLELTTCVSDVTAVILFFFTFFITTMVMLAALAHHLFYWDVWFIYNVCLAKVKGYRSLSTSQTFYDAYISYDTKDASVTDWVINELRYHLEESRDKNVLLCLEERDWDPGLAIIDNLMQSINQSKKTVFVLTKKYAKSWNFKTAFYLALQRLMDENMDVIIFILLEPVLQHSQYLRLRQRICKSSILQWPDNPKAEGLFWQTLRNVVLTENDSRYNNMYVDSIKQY
As to the kind of experiment: Agonist activity at human TLR8 expressed in HEK293XL cells assessed as NF-kappaB activation after 18 hrs. The class given is functional, cell-based.

Data set [2] is described as follows: Stability in human serum assessed as full-length compound remaining after 10 mins by anion-exchange HPLC. Particulars: read-out: Stability. The class given is ADME, cell-free.
For data set [3], the species on record is Homo sapiens. As to the kind of experiment: Stimulation of immune response in human pDC assessed as induction of IFNalpha production at 150 ug/ml after 24 hrs. The format is functional.
Data set [4] deals with PBMC. As to the kind of experiment: Stimulation of immune response in human PBMC assessed as induction of IL1-beta production at 150 ug/ml after 24 hrs. The class given is functional, cell-based.
The species entered for data set [5] is Homo sapiens. In words: Stimulation of immune response in human pDC assessed as induction of MIP1alpha production at 150 ug/ml after 24 hrs. The format is functional.
Data set [6] relates to PBMC. As to the kind of experiment: Stimulation of immune response in human PBMC assessed as induction of RANTES production at 150 ug/ml after 24 hrs. The format is functional, cell-based.
For data set [7], the species on record is Homo sapiens. In words: Stimulation of immune response in human pDC assessed as induction of MIP1beta production at 150 ug/ml after 24 hrs. The class given is functional.
For data set [8], the system named is PBMC. As to the kind of experiment: Stimulation of immune response in human PBMC assessed as induction of IL2R level at 150 ug/ml after 24 hrs. The class given is functional, cell-based.
For data set [9], the species on record is Homo sapiens. In words: Stimulation of immune response in human pDC assessed as induction of IFN-gamma production at 150 ug/ml after 24 hrs. The format is functional.
Data set [10] concerns PBMC. As to the kind of experiment: Stimulation of immune response in human PBMC assessed as induction of IL8 production at 150 ug/ml after 24 hrs. The class given is functional, cell-based.
Data set [11] has as its system PBMC. As to the kind of experiment: Stimulation of immune response in human PBMC assessed as induction of IFN-gamma production at 150 ug/ml after 24 hrs. The class given is functional, cell-based.
The species entered for data set [12] is Homo sapiens. As to the kind of experiment: Stimulation of immune response in human pDC assessed as induction of IL12 production at 150 ug/ml after 24 hrs. The class given is functional.
Data set [13] concerns PBMC. In words: Stimulation of immune response in human PBMC assessed as induction of IFNalpha production at 150 ug/ml after 24 hrs. The format is functional, cell-based.
For data set [14], the system named is PBMC. In words: Stimulation of immune response in human PBMC assessed as induction of MIP1beta production at 150 ug/ml after 24 hrs. The class given is functional, cell-based.
Data set [15] concerns PBMC. In words: Stimulation of immune response in human PBMC assessed as induction of IL12 production at 150 ug/ml after 24 hrs. The format is functional, cell-based.
The subject of data set [16] is PBMC. As to the kind of experiment: Stimulation of immune response in human PBMC assessed as induction of IL10 production at 150 ug/ml after 24 hrs. The class given is functional, cell-based.
The test system of the next data set is Mus musculus. As to the kind of experiment: Stimulation of immune response in C57BL/6 mouse assessed as induction of serum IL12 production at 50 mg/kg, sc after 2 hrs by luminex multiplex assay. The class given is functional, organism-based. Also on record: dose 50 mg/kg.
Data set [17] has as its system PBMC. As to the kind of experiment: Stimulation of immune response in human PBMC assessed as induction of TNFalpha production at 150 ug/ml after 24 hrs. The format is functional, cell-based.
The species entered for data set [18] is Homo sapiens. As to the kind of experiment: Stimulation of immune response in human pDC assessed as induction of TNFalpha production at 150 ug/ml after 24 hrs. The class given is functional.
In data set [19] the test system is PBMC. In words: Stimulation of immune response in human PBMC assessed as induction of MIP1alpha production at 150 ug/ml after 24 hrs. The format is functional, cell-based.
Data set [20] addresses T2, Toll-like receptor 7 (Homo sapiens) (UniProt Q9NYK1).
T2 sequence (whole entry): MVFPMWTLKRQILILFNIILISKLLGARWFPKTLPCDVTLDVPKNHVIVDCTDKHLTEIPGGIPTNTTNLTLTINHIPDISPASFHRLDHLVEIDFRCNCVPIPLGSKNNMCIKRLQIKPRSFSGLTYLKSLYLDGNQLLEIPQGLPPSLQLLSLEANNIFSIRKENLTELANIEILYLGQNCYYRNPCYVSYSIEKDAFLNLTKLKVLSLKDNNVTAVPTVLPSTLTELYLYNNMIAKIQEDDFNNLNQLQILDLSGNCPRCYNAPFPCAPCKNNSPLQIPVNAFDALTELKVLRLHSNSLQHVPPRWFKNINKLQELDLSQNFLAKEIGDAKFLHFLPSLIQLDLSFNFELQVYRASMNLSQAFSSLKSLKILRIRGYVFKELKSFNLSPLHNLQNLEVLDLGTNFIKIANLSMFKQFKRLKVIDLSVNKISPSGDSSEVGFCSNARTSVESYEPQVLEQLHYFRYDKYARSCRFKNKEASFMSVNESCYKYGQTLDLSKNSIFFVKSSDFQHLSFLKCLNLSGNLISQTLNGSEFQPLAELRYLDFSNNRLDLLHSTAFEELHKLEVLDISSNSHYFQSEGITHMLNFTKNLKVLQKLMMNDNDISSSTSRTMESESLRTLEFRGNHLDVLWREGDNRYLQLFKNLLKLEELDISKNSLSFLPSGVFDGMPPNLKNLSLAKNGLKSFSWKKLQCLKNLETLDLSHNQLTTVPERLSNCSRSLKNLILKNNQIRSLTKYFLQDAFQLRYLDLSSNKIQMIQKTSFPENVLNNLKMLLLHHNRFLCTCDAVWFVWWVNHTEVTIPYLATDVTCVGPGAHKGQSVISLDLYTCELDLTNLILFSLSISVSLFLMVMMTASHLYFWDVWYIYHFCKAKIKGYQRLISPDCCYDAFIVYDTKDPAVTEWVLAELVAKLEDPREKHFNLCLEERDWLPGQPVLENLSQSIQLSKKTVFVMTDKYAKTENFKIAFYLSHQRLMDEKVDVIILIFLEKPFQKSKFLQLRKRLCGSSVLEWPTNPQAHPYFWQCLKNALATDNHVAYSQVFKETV
As to the kind of experiment: Agonist activity at human TLR7 expressed in HEK293XL cells assessed as NF-kappaB activation at 300 ug/ml after 18 hrs. The class given is functional, cell-based.

For data set [21], the system named is PBMC. In words: Stimulation of immune response in human PBMC assessed as induction of MCP1 production at 150 ug/ml after 24 hrs. The class given is functional, cell-based.

The values below come from ChEMBL document CHEMBL1151840, “Synthetic oligoribonucleotides containing arabinonucleotides act as agonists of TLR7 and 8” (Bioorg Med Chem Lett, 2009).

Activity calls are given as the source filed them. The calls are words filed in the database; no cut-off is given here.

Turning to `Nc1ccn([C@@H]2O[C@H](COP(=O)(S)O[C@H]3[C@@H](O)[C@H](n4ccc(=O)[nH]c4=O)O[C@@H]3COP(=O)(S)O[C@H]3[C@@H](O)[C@H](n4ccc(=O)[nH]c4=O)O[C@@H]3COP(=O)(S)O[C@H]3[C@@H](O)[C@H](n4cnc5c(=O)[nH]c(N)nc54)O[C@@H]3COP(=O)(S)O[C@H]3[C@@H](O)[C@H](n4ccc(=O)[nH]c4=O)O[C@@H]3COP(=O)(S)O[C@H]3[C@@H](O)[C@H](n4cnc5c(=O)[nH]c(N)nc54)O[C@@H]3COP(=O)(S)OCC(O)COP(=O)(S)O[C@H]3[C@@H](O)[C@H](n4cnc5c(=O)[nH]c(N)nc54)O[C@@H]3COP(=O)(S)O[C@H]3[C@@H](O)[C@H](n4ccc(=O)[nH]c4=O)O[C@@H]3COP(=O)(S)O[C@H]3[C@@H](O)[C@H](n4cnc5c(=O)[nH]c(N)nc54)O[C@@H]3COP(=O)(S)O[C@H]3[C@@H](O)[C@H](n4ccc(=O)[nH]c4=O)O[C@@H]3COP(=O)(S)O[C@H]3[C@@H](O)[C@H](n4ccc(=O)[nH]c4=O)O[C@@H]3COP(=O)(S)O[C@H]3[C@@H](O)[C@H](n4ccc(N)nc4=O)O[C@@H]3COP(=O)(S)O[C@H]3[C@@H](O)[C@H](n4cnc5c(=O)[nH]c(N)nc54)O[C@@H]3COP(=O)(S)O[C@H]3[C@H](O)[C@H](n4ccc(=O)[nH]c4=O)O[C@@H]3COP(=O)(S)O[C@H]3[C@@H](O)[C@H](n4ccc(N)nc4=O)O[C@@H]3COP(=O)(S)O[C@H]3[C@@H](O)[C@H](n4cnc5c(=O)[nH]c(N)nc54)O[C@@H]3COP(=O)(S)O[C@H]3[C@H](O)[C@H](n4ccc(=O)[nH]c4=O)O[C@@H]3CO)[C@@H](OP(=O)(S)OC[C@H]3O[C@@H](n4cnc5c(=O)[nH]c(N)nc54)[C@H](O)[C@@H]3OP(=O)(S)OC[C@H]3O[C@@H](n4ccc(=O)[nH]c4=O)[C@@H](O)[C@@H]3OP(=O)(S)OC[C@H]3O[C@@H](n4ccc(N)nc4=O)[C@H](O)[C@@H]3OP(=O)(S)OC[C@H]3O[C@@H](n4cnc5c(=O)[nH]c(N)nc54)[C@H](O)[C@@H]3OP(=O)(S)OC[C@H]3O[C@@H](n4ccc(=O)[nH]c4=O)[C@@H](O)[C@@H]3OP(=O)(O)S)[C@H]2O)c(=O)n1` (some centres not stated), the Activity entry in data set [1] is “Dose-dependent effect”. Further, in data set [2], the remaining at 10 min stood at 76%. Further, the result (in the data set listed under Homo sapiens [3]; in the data set with Mus musculus; in data set [20]) was inactive. The outcome with PBMC [4], in the data set listed under Homo sapiens [5], with PBMC [6], in the data set filed under Homo sapiens [7], with PBMC [8] and in the data set filed under Homo sapiens [9] was Active. For the same compound, the outcome in the data set on PBMC [10], in the data set with PBMC [11], in the data set listed under Homo sapiens [12], in the data set with PBMC [13], with PBMC [14] and with PBMC [15] was Active. For the same compound, the result in the data set on PBMC [16], in the data set on PBMC [17], in the data set filed under Homo sapiens [18], in the data set on PBMC [19] and in the data set with PBMC [21] was Active.
